# Test results taken from patent US11453697B1, “Cyclic di-nucleotide compounds as sting agonists” (Merck Sharp & Dohme Corp., priority 2015, dated 2022).
# Test system: IFN-β secretion in THP1 cells
# Experiment: IFN-β secretion in THP1 cell culture (5 h)
# Format: cell-based, human
# Conditions: not given
# Procedure: The ability of compounds to stimulate the secretion of interferon-beta from THP1 cells was measured using a human IFN-β AlphaLISA kit (Perkin Elmer, Cat. No. AL265F). The basic protocol is as follows:
# The cell viability and count was ascertained using a Beckman Coulter V-Cell XR cell counter. The cells suspension was centrifuged at 200×g for 5 min at RT. […] Subsequent liquid transfers were performed using either a Matrix electronic multichannel pipette or an Agilent Bravo Automated Liquid Handling Platform.
# The assay was started by dispensing 40 μL of the previously prepared cell suspension into the wells of the plate containing compounds. After 5 h incubation at 37° C., 5% CO2 in a humidified atmosphere, the plate of cells and compounds was centrifuged at 200×g for 5 min at RT. […] To these supernatant-containing wells was added 10 μL of 5× Anti-Analyte Acceptor beads (50 μg/mL of AlphaLISA HiBlock Buffer) and incubated for 30 min at RT while shaking on an orbital plate shaker. To each well was added 10 μL of 5× Biotinylated Antibody Anti-analyte (5 nM in AlphaLISA HiBlock Buffer) and incubated on an orbital plate shaker for 60 min at RT or overnight at 4° C. To each well was added 25 μL of 2× SA-Donor beads (80 μg/mL in AlphaLISA HiBlock Buffer) and incubated for 30-45 min at RT in the dark while shaking on an orbital plate shaker. The plate was then read on a Perkin Elmer Envision (λex=680 nm, λem=[…]). The percent effect of the AlphaLISA signal at each compound concentration was calculated based on 30 uM cGAMP positive controls and 0.3% DMSO negative controls. The plot of percent effect versus the log of compound concentration was fit with a 4-parameter concentration response equation to calculate EC50 values.
# Compounds of the disclosure were evaluated for IFN-β secretion in THP1 cell culture as described above.
row,Compound,% Effect at 30 μM relative to 2′3′-cGAMP [%]
1,"Nc1nc2c(ncn2[C@@H]2O[C@@H]3COP(=O)(O)OC4C(F)[C@H](n5cnc6c(N)ncnc65)O[C@@H]4COP(=O)(O)OC2C3O)c(=O)[nH]1 (stereo in doubt) [Example 2, (5R,7R,8R,12aR,14R,15R,15aR,16R)-7-(2-amino-6-oxo-1,6-dihydro-9H-purin-9-yl)-14-(6-amino-9H-purin-9-yl)-15-fluoro-16-hydroxyoctahydro-12H-5,8-methanofuro[3,2-l] [1,3,6,9,11,2,10]pentaoxadiphosphacyclotetradecine-2,10-diolate 2,10-dioxide]",148
2,"Nc1nc2c(ncn2[C@@H]2O[C@@H]3COP(=O)(O)OC4C(O)[C@H](n5cnc6c(N)ncnc65)O[C@@H]4COP(=O)(O)OC2C3F)c(=O)[nH]1 (stereo in doubt) [Example 5, (5R,7R,8S,12aR,14R,15R,15aS,16R)-7-(2-amino-6-oxo-1,6-dihydro-9H-purin-9-yl)-14-(6-amino-9H-purin-9-yl)-16-fluoro-15-hydroxyoctahydro-12H-5,8-methanofuro[3,2-l] [1,3,6,9,11,2,10]pentaoxadiphosphacyclotetradecine-2,10-diolate 2,10-dioxide]",152
3,"Nc1nc2c(ncn2[C@@H]2O[C@@H]3COP(=O)(O)OC4[C@@H](COP(=O)(O)OC2C3O)O[C@@H](n2cnc3c(N)ncnc32)[C@H]4F)c(=O)[nH]1 (stereo in doubt) [Example 7, (5R,7R,8R,12aR,14R,15S,15aR,16R)-7-(2-amino-6-oxo-1,6-dihydro-9H-purin-9-yl)-14-(6-amino-9H-purin-9-yl)-15-fluoro-16-hydroxyoctahydro-12H-5,8-methanofuro[3,2-l][1,3,6,9,11,2,10] pentaoxadiphosphacyclotetradecine-2,10-diolate 2,10-dioxide]",112
4,"Nc1nc2c(ncn2[C@@H]2O[C@@H]3COP(=O)(O)OC4C[C@H](n5cnc6c(N)ncnc65)O[C@@H]4COP(=O)(O)OC2C3F)c(=O)[nH]1 (stereo in doubt) [Example 22, 2-amino-9-[(5R,7R,8S,12aR,14R,15aS,16R)-14-(6-amino-9H-purin-9-yl)-16-fluoro-2,10-dihydroxy-2,10-dioxidooctahydro-12H-5,8-methanofuro[3,2-l][1,3,6,9,11,2,10]pentaoxadiphosphacyclotetradecin-7-yl]-1,9-dihydro-6H-purin-6-one]",109
5,"Nc1nc2c(ncn2[C@@H]2O[C@@H]3COP(=O)(O)OC4C(F)[C@H](n5cnc6c(N)ncnc65)O[C@@H]4COP(=O)(O)OC2C3F)c(=O)[nH]1 (stereo in doubt) [Example 23, 2-amino-9-[(5R,7R,8S,12aR,14R,15R,15aR,16R)-14-(6-amino-9H-purin-9-yl)-15,16-difluoro-2,10-dihydroxy-2,10-dioxidooctahydro-12H-5,8-methanofuro[3,2-l][1,3,6,9,11,2,10]pentaoxadiphosphacyclotetradecin-7-yl]-1,9-dihydro-6H-purin-6-one]",125
6,"Nc1nc2c(ncn2[C@@H]2O[C@@H]3COP(=O)(O)OC4[C@@H](COP(=O)(O)O[C@H]2C3F)O[C@@H](n2cnc3c(N)ncnc32)[C@H]4F)c(=O)[nH]1 (stereo partly drawn) [Example 26, 2-amino-9-[(2S,5R,7R,8S,10S,12aR,14R,15S,15aR,16R)-14-(6-amino-9H-purin-9-yl)-15,16-difluoro-2,10-dihydroxy-2,10-dioxidooctahydro-12H-5,8-methanofuro[3,2-l][1,3,6,9,11,2,10]pentaoxadiphosphacyclotetradecin-7-yl]-1,9-dihydro-6H-purin-6-one]",150
7,"Nc1nc2c(ncn2[C@@H]2O[C@@H]3COP(=O)(O)O[C@H]4C[C@H](n5cnc6c(N)ncnc65)O[C@@H]4COP(=O)(O)O[C@@H]2C3)c(=O)[nH]1 [Example 27, 2-amino-9-[(5S,7R,8R,12aR,14R,15aS)-14-(6-amino-9H-purin-9-yl)-2,10-dihydroxy-2,10-dioxidooctahydro-12H-5,8-methanofuro[3,2-l][1,3,6,9,11,2,10]pentaoxadiphosphacyclotetradecin-7-yl]-1,9-dihydro-6H-purin-6-one]",164
8,"Nc1nc2c(ncn2[C@@H]2O[C@@H]3COP(=O)(O)O[C@H]4[C@@H](O)[C@H](n5cnc6c(N)ncnc65)O[C@@H]4COP(=O)(O)O[C@@H]2[C@H]3O)c(=O)[nH]1 [Example 39, 2-amino-9-[(5R,7R,8R,12aR,14R,15R,15aS,16S)-14-(6-amino-9H-purin-9-yl)-2,10,15,16-tetrahydroxy-2,10-dioxidooctahydro-12H-5,8-methanofuro[3,2-l][1,3,6,9,11,2,10]pentaoxadiphosphacyclotetradecin-7-yl]-1,9-dihydro-6H-purin-6-one]",74
9,"Nc1nc2c(ncn2[C@@H]2O[C@@H]3COP(=O)(O)O[C@H]4[C@H](O)[C@H](n5cnc6c(N)ncnc65)O[C@@H]4COP(=O)(O)O[C@@H]2[C@@H]3O)c(=O)[nH]1 [Example 48, 2-amino-9-[(5R,7R,8R,12aR,14R,15S,15aS,16R)-14-(6-amino-9H-purin-9-yl)-2,10,15,16-tetrahydroxy-2,10-dioxidooctahydro-12H-5,8-methanofuro[3,2-l][1,3,6,9,11,2,10]pentaoxadiphosphacyclotetradecin-7-yl]-1,9-dihydro-6H-purin-6-one]",104

# Same assay, conditions: IFN-β secretion in THP1 cell culture, 5 h; compound at 30 μM; percent activation relative to 2′3′-cGAMP
row,Compound,% Effect at 30 μM relative to 2′3′-cGAMP [%]
1,"Nc1nc2c(ncn2[C@@H]2O[C@@H]3COP(O)(=S)O[C@H]4[C@H](F)[C@H](n5cnc6c(N)ncnc65)O[C@@H]4COP(O)(=S)O[C@@H]2[C@@H]3F)c(=O)[nH]1 (single isomer, unassigned) [Example 246]",217
2,"Nc1nc2c(ncn2[C@@H]2O[C@@H]3COP(=O)(O)O[C@H]4[C@H](F)[C@H](n5cnc6c(N)ncnc65)O[C@@H]4COP(O)(=S)O[C@@H]2[C@@H]3F)c(=O)[nH]1 (single isomer, unassigned) [Example 273]",85
3,"Nc1nc2c(ncn2[C@@H]2O[C@@H]3COP(=O)(O)O[C@H]4[C@H](F)[C@H](n5cnc6c(N)ncnc65)O[C@@H]4COP(O)(=S)O[C@@H]2[C@@H]3F)c(=O)[nH]1 (single isomer, unassigned) [Example 274]",124
4,"Nc1nc2c(nnn2[C@@H]2O[C@@H]3COP(=O)(S)O[C@H]4[C@H](F)[C@H](n5nnc6c(=O)[nH]cnc65)O[C@@H]4COP(=O)(S)O[C@@H]2C3)c(=O)[nH]1 (single isomer, unassigned) [Example 340]",306
5,"Nc1nc2c(nnn2[C@@H]2O[C@@H]3COP(=O)(S)O[C@H]4[C@H](F)[C@H](n5nnc6c(=O)[nH]cnc65)O[C@@H]4COP(=O)(S)O[C@@H]2C3)c(=O)[nH]1 (single isomer, unassigned) [Example 341]",7
6,"Nc1nc2c(nnn2[C@@H]2O[C@@H]3COP(=O)(S)O[C@H]4[C@H](F)[C@H](n5cnc6c(=O)[nH]cnc65)O[C@@H]4COP(=O)(S)O[C@@H]2[C@@H]3F)c(=O)[nH]1 (single isomer, unassigned) [Example 342]",23
7,"Nc1nc2c(nnn2[C@@H]2O[C@@H]3COP(=O)(S)O[C@H]4[C@H](F)[C@H](n5cnc6c(=O)[nH]cnc65)O[C@@H]4COP(=O)(S)O[C@@H]2[C@@H]3F)c(=O)[nH]1 (single isomer, unassigned) [Example 343]",255
8,"Nc1nc2c(nnn2[C@@H]2O[C@@H]3COP(=O)(S)O[C@H]4[C@H](F)[C@H](n5nnc6c(=O)[nH]cnc65)O[C@@H]4COP(=O)(S)O[C@@H]2[C@@H]3F)c(=O)[nH]1 (single isomer, unassigned) [Example 344]",337
9,"Nc1nc2c(nnn2[C@@H]2O[C@@H]3COP(=O)(S)O[C@H]4[C@H](F)[C@H](n5nnc6c(=O)[nH]cnc65)O[C@@H]4COP(=O)(S)O[C@@H]2[C@@H]3F)c(=O)[nH]1 (single isomer, unassigned) [Example 345]",144
10,"Nc1nc2c(ncn2[C@@H]2O[C@@H]3COP(=O)(O)O[C@H]4[C@H](F)[C@H](n5nnc6c(=O)[nH]cnc65)O[C@@H]4COP(=O)(S)O[C@@H]2[C@@H]3F)c(=O)[nH]1 (single isomer, unassigned) [Example 346]",182
11,"Nc1nc2c(ncn2[C@@H]2O[C@@H]3COP(=O)(O)O[C@H]4[C@H](F)[C@H](n5nnc6c(=O)[nH]cnc65)O[C@@H]4COP(=O)(S)O[C@@H]2[C@@H]3F)c(=O)[nH]1 (single isomer, unassigned) [Example 347]",225
